PubChem BioAssay (NCI)
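The compound was tested at five concentrations on cells cultured in 96-well plates, with a 48-hour exposure period. At the TGI there is no net growth.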

Key:
Test in all cases: DTP human tumour cell line panel, 48 h
HCT-116 colon = tested on: HCT-116 colon
BT-549 breast = tested on: BT-549 breast
SF-295 CNS = tested on: SF-295 CNS
NCI-H522 lung = tested on: NCI-H522 lung
MDA-N = tested on: MDA-N
OVCAR-3 ovarian = tested on: OVCAR-3 ovarian
TK-10 renal = tested on: TK-10 renal
UACC-257 melanoma = tested on: UACC-257 melanoma
RXF 393 renal = tested on: RXF 393 renal
DU-145 prostate = tested on: DU-145 prostate
SK-MEL-28 melanoma = tested on: SK-MEL-28 melanoma
HOP-62 NSCLC = tested on: HOP-62 NSCLC
HCC-2998 colon = tested on: HCC-2998 colon
786-0 renal = tested on: 786-0 renal
HCT-15 colon = tested on: HCT-15 colon
SF-539 CNS = tested on: SF-539 CNS
MOLT-4 leukemia = tested on: MOLT-4 leukemia
A549 NSCLC = tested on: A549 NSCLC
UACC-62 melanoma = tested on: UACC-62 melanoma

SMILES | TGI (HCT-116 colon) [µM] | TGI (BT-549 breast) [µM] | TGI (SF-295 CNS) [µM] | TGI (NCI-H522 lung) [µM] | TGI (MDA-N) [µM] | TGI (OVCAR-3 ovarian) [µM] | TGI (TK-10 renal) [µM] | TGI (UACC-257 melanoma) [µM] | TGI (RXF 393 renal) [µM] | TGI (DU-145 prostate) [µM] | TGI (SK-MEL-28 melanoma) [µM] | TGI (HOP-62 NSCLC) [µM] | TGI (HCC-2998 colon) [µM] | TGI (786-0 renal) [µM] | TGI (HCT-15 colon) [µM] | TGI (SF-539 CNS) [µM] | TGI (MOLT-4 leukemia) [µM] | TGI (A549 NSCLC) [µM] | TGI (UACC-62 melanoma) [µM]
O=c1[nH]c(=O)n(C2OC(CO)C(O)C2O)c2ccsc12 (stereo not drawn) | > 100 | > 100 | > 100 | > 100 | > 100 | > 100 | > 100 | > 100 | > 100 | > 100 | > 100 | > 100 | > 100 | > 100 | > 100 | > 100 | > 100 | > 100 | –
COc1cc(/C=C/C(=O)OCCc2ccccc2)ccc1O | 31.6 | 28.1 | 35.3 | 22.1 | 34.4 | 36.9 | 28.3 | 32.4 | – | 30.4 | 26.9 | 33.4 | 41.3 | 30.4 | 44.6 | 36.7 | 37.9 | 38.9 | 26
Oc1ccc2oc3c(O)c4ccccc4cc3c2c1 | 4.16 | 15.3 | – | 2.71 | 9.89 | 15.1 | 45 | > 100 | 16.9 | 15.6 | > 100 | > 100 | – | 20 | 21.3 | 3.91 | 11.9 | > 100 | 1.67
O=C(O)[C@@H]1CCC(=O)N1C(c1ccc2c(c1)OCO2)c1ccc2c(c1)OCO2 | > 100 | > 100 | > 100 | > 100 | > 100 | > 100 | > 100 | > 100 | – | > 100 | > 100 | > 100 | > 100 | > 100 | > 100 | > 100 | > 100 | > 100 | > 100
c1ccc(C2SCc3nc4cc5ccccc5cc4n32)cc1 (stereo not drawn) | > 100 | > 100 | > 100 | – | > 100 | > 100 | > 100 | > 100 | > 100 | > 100 | > 100 | > 100 | > 100 | > 100 | > 100 | > 100 | > 100 | > 100 | > 100
CC(=O)OC(C)c1cc2c(s1)C(=O)c1scc(C(C)OC(C)=O)c1C2=O (stereo not drawn) | 0.838 | 0.426 | 0.323 | 0.571 | 0.256 | – | 1.83 | 0.463 | 1.31 | 0.317 | 0.378 | 0.44 | 1.23 | 0.461 | 0.381 | 0.36 | – | 4.06 | 0.418
CCCCCCCCCCCCCCCC(=O)OCC1CCCN2CCCCC12 (stereo not drawn) | > 100 | > 100 | > 100 | – | > 100 | > 100 | > 100 | > 100 | > 100 | > 100 | > 100 | > 100 | > 100 | > 100 | > 100 | > 100 | > 100 | > 100 | > 100
O=C(CC(C(=O)c1ccco1)c1cccs1)c1cccs1 (stereo not drawn) | > 100 | > 100 | > 100 | > 100 | > 100 | > 100 | > 100 | > 100 | > 100 | > 100 | > 100 | > 100 | > 100 | > 100 | > 100 | > 100 | – | > 100 | > 100
O=C(O)c1ccc([N+]2=Cn3c(nc4ccccc43)C2)cc1 | > 100 | > 100 | > 100 | > 100 | > 100 | > 100 | > 100 | > 100 | > 100 | > 100 | > 100 | > 100 | > 100 | > 100 | > 100 | – | – | > 100 | > 100
Cc1n[nH]c(=O)n1/N=C/c1cccs1 | > 100 | > 100 | > 100 | – | > 100 | > 100 | – | > 100 | > 100 | > 100 | > 100 | > 100 | > 100 | > 100 | > 100 | > 100 | – | > 100 | > 100
O=C1C(c2c(O)[nH]c3ccc(S(=O)(=O)O)cc23)=Nc2ccc(Br)cc21 | > 100 | > 100 | > 100 | > 100 | > 100 | > 100 | > 100 | > 100 | > 100 | > 100 | > 100 | > 100 | > 100 | > 100 | > 100 | – | > 100 | > 100 | > 100
O=C1Nc2ccccc2S/C1=C\c1ccccc1C(F)(F)F | > 100 | > 100 | > 100 | > 100 | > 100 | > 100 | > 100 | > 100 | > 100 | > 100 | > 100 | > 100 | – | > 100 | > 100 | > 100 | > 100 | > 100 | > 100
C1=Nc2sc3c(c2C2=NCCN12)CCCC3 | 30.5 | 28.7 | 39.6 | 30.9 | 35.5 | 32.3 | 30.7 | 30 | 44.9 | 30.1 | 41 | 37.2 | 24.3 | 34.1 | 30.4 | – | 36.4 | – | 29
O=C1Nc2ccccc2S/C1=C\c1cccc(C(F)(F)F)c1 | > 100 | > 100 | > 100 | > 100 | > 100 | > 100 | > 100 | > 100 | > 100 | > 100 | > 100 | > 100 | – | > 100 | > 100 | > 100 | > 100 | > 100 | > 100
CSC1=NC(C(N)=O)C(N)N1C (stereo not drawn) | > 100 | > 100 | > 100 | > 100 | > 100 | > 100 | > 100 | > 100 | > 100 | > 100 | > 100 | > 100 | – | > 100 | > 100 | > 100 | > 100 | > 100 | > 100
CC(=O)OC[C@@H]1[C@H]2CC[C@]3(C)[C@@H](OC(C)=O)CC[C@H]3[C@@H]2CC[C@H]1C1(C)SCCS1 | > 25 | > 25 | > 25 | > 25 | > 25 | > 25 | > 25 | > 25 | > 25 | > 25 | > 25 | > 25 | > 25 | > 25 | > 25 | > 25 | > 25 | > 25 | –
N#Cc1c(NCCc2ccc(F)cc2)c2ccccc2n2c1nc1ccccc12 | > 100 | 72.6 | 65.4 | – | > 100 | 66.4 | 60.8 | > 100 | 65.7 | 98.1 | > 100 | > 100 | > 100 | 17.6 | > 100 | > 100 | > 100 | > 100 | 32.8
CN(Cc1cnc2nc(N)nc(N)c2n1)c1ccc(C(=O)NCS(=O)(=O)O)cc1 | > 100 | > 100 | > 100 | > 100 | > 100 | > 100 | > 100 | > 100 | – | 82.7 | > 100 | > 100 | > 100 | > 100 | > 100 | > 100 | > 100 | > 100 | > 100
COC(=O)[C@H]1C[C@H]1NC(=O)C(CC(=O)OCc1ccccc1)NC(=O)OCc1ccccc1 (stereo partly drawn) | > 100 | 55.9 | > 100 | > 100 | > 100 | – | > 100 | > 100 | – | > 100 | > 100 | – | > 100 | > 100 | > 100 | > 100 | > 100 | > 100 | –
O=C(O)c1cc2cc(c1)N=Cc1ccccc1OCc1cccc(n1)COc1ccccc1C=N2 | > 25 | > 25 | 22.1 | > 25 | 9.82 | 13.2 | > 25 | > 25 | > 25 | > 25 | > 25 | > 25 | – | > 25 | > 25 | > 25 | > 25 | > 25 | > 25
CN1C(=O)N/C(=C\c2ccc(S(=O)(=O)N/N=C\C(O)C(O)C(O)CO)cc2)C1=O (stereo not drawn) | > 100 | > 100 | > 100 | – | > 100 | > 100 | > 100 | > 100 | > 100 | > 100 | > 100 | > 100 | > 100 | > 100 | > 100 | – | > 100 | > 100 | > 100
